Data taken from patent US20200246364A1, “MEDICAL APPLICATION OF COMPOSITION OF FRUCTOSE-1,6-BISPHOSPHATE AND BLOOD CONCENTRATION STABILIZER THEREOF” (ZHEJIANG UNIVERSITY, priority 2017, published 2020).

Key:
SHG-44 [1] = experiment: Mitochondrial oxidative phosphorylation in glioma cells (ATP/ADP, NADH/NAD+, ATP); format: cell-based, human
U87MG = experiment: 13C-glucose tracing: glycolysis, pentose phosphate, one-carbon and nucleic acid synthesis intermediates (LC-MS/MS); format: cell-based, human; settings: 1.6 mM, 36 h
Experimental: Human glioma cell strain (U87MG) was incubated in a medium containing ^13C-labeled glucose (U-^13C-Glc) and treated with 1.6 mM of trisodium fructose-1,6-bisphosphate for 36 h, and then, intermediate products of intracellular glycolysis pathway, pentose phosphate pathway, “one-carbon unit” metabolic pathway, and nucleic acid de novo synthesis pathway were measured using liquid-mass spectrometry (LC-MS/MS).

KNS-89 = experiment: Glutathiones and NADPH/NADP+ (LC-MS/MS); format: cell-based, human; settings: KNS-89, 1.6 mM, 36 h
Experimental: (§1) Rat glioma cell strain (C6) and human glioma cell strain (KNS-89, SHG-44) were respectively cultured in a medium containing 1.6 mM of trisodium fructose-1,6-bisphosphate for 36 h, and important antioxidants in cells were measured by liquid-mass spectrometry (LC-MS/MS).

SHG-44 [2] = experiment: Glutathiones and NADPH/NADP+ (LC-MS/MS); format: cell-based, human; settings: SHG-44, 1.6 mM, 36 h
Experimental: as §1

[3] = test system: fructose-1,6-bisphosphatase 1; experiment: Kidney protein level of fructose-1,6-bisphosphatase 1 after 14 days treatment (Western Blot); format: in vivo; settings: SD rats, 14 days i.g.; FBP 500 mg/kg, metformin 150 mg/kg, sitagliptin 20 mg/kg; vs control group
Experimental: 180-200 g SD rats were divided into 4 groups: a saline control group, a trisodium fructose-1,6-bisphosphate hydrate group (500 mg/kg, i.g), a metformin group (150 mg/kg, i.g) or a sitagliptin group (20 mg/kg, i.g), and a trisodium fructose-1,6-bisphosphate and metformin or sitagliptin combination group, 5 rats in each group. All groups were intragastrically treated, metformin or sitagliptin was administrated 0.5 h before fructose-1,6-bisphosphate, and this was repeated in 14 consecutive days. At 3 hours after the last intragastric treatment with fructose-1,6-bisphosphate, rat blood was collected to detect the blood concentration of FBP, kidney tissue was taken and the protein level of fructose-1,6-bisphosphatase 1 was measured by Western Blot.

HCT-8 = experiment: Cell viability, Sulforhodamine B (SRB) staining; format: cell-based, human; settings: Homo sapiens, HCT-8, 72 h, FBP 0.8 mM
Experimental: (§2) Human intestinal cancer cell strains SW620 and HCT-8, which had been incubated for 24 hours, were respectively incubated in a medium containing 0.8 mM of trisodium fructose-1,6-bisphosphate, a medium containing 0.2 mM of metformin/100 μM of sitagliptin, and a medium containing 0.8 mM of trisodium fructose-1,6-bisphosphate and 0.2 mM of metformin/100 μM of sitagliptin for 72 h. A control group (Con) was not treated with the agent. Cell viability was determined by Sulforhodamine B (SRB) staining analysis method.

[4] = Weight gain and fat accumulation caused by high-fat diet; format: in vivo, ICR mice; settings: high-fat diet mice
Experimental: 40 ICR male mice (17-19 g/per mouse) were divided into 2 groups. […] The animals of the normal group (Naive) were still fed with the basic feed, and the model animals were equally divided into 4 groups and were further fed with the high-fat diet. In addition, according to the amount of water the mice had consumed, a certain dose of the agent was dissolved in drinking water. The animals in the model group (Model) were fed with the purified water, the animals in the fructose-1,6-bisphosphate group were fed with water containing 0.18% of 8-molecule hydrate of sodium fructose-1,6-bisphosphate (equivalent to FBP 300 mg/kg), the animals in the sitagliptin group were fed with water containing 0.012% of sitagliptin phosphate salt (equivalent to STG 20 mg/kg), and the animals in the combination group were fed with water containing FBP 500 mg/kg+STG 20 mg/kg. The treatment lasted continuously for 6 weeks, the body weight, food intake and water intake were measured per week, the body weight and body length (CM) were measured on the last day of the last week, and a Lee's INDEX (Lee's INDEX=body weight (g)^(1/3) * 1000/body length (cm)) was calculated to evaluate the state of animal obesity. Then, the animals were sacrificed by cervical vertebra dislocation and the mice were dissected, the epididymal fat pad was taken and weighed, and a fat coefficient was calculated to further investigate the degree of obesity of the mice.

SW620 = experiment: cells; settings: Homo sapiens, SW-620, 72 h
Experimental: as §2

Bel-7402 = experiment: cells; settings: Homo sapiens, Bel-7402, 72 h, read-out: cell viability inhibited
Experimental: Human liver cancer cell strains Bel-7402 and huh-7, which had been incubated for 24 hours, were respectively incubated in a medium containing 1.6 mM or 0.8 mM of trisodium fructose-1,6-bisphosphate, a medium containing 0.2 mM of metformin or 25 μM of sitagliptin, and a medium containing 0.8 mM of trisodium fructose-1,6-bisphosphate and 0.2 mM of metformin/25 μM of sitagliptin for 72 h. A control group (Con) was not treated with the agent. Cell viability was determined by Sulforhodamine B (SRB) staining analysis method.

O=C(COP(=O)(O)O)[C@@H](O)[C@H](O)[C@H](O)COP(=O)(O)O [FBP, fructose-1,6-bisphosphate]
ratio of ATP/ADP (CON = 1.00) (SHG-44 [1]; SHG-44, 0.8 mM or 1.6 mM, 36 h): 3.82 ± 0.68 | ratio of NADH/NAD+ (CON = 1.00) (SHG-44 [1]; SHG-44, 0.8 mM or 1.6 mM, 36 h): 3.40 ± 0.15 | ATP level (SHG-44 [1]; SHG-44, 36 h, vs control group): significantly increased | glycine (Gly) (M+2) produced by serine, relative to control group 1 (U87MG): 0.63±0.06 | serine (Ser) (M+3) produced by U-13C-Glc, relative to control group 1 (U87MG): 1.57±0.04 | Proportions of 13C-labeled ribose in free nucleosides and nucleotides, column F6P (U87MG; CON 13.03 ± 0.38): 2.79 ± 0.14 | Proportions of 13C-labeled ribose in free nucleosides and nucleotides, column GAP (U87MG; CON 31.97 ± 1.11): 11.31 ± 1.75 | Proportions of 13C-labeled ribose in free nucleosides and nucleotides, column FBP (U87MG; CON 41.00 ± 4.28): 34.99 ± 1.63 | Proportions of 13C-labeled ribose in free nucleosides and nucleotides, column PEP (U87MG; CON 59.40 ± 1.11): 13.71 ± 0.54 | Proportions of 13C-labeled ribose in free nucleosides and nucleotides, column Lac (U87MG; CON 61.60 ± 1.95): 30.70 ± 2.11 | proportion of the 13C-labeled 5-phosphate ribose (R5P) (U87MG; control group 68.96±5.03%): 17.32±1.23% | Relative level of F6P (compared with the control group) (U87MG; U-13C-Glc): 2.06 ± 0.04 | Relative level of FBP (compared with the control group) (U87MG; U-13C-Glc): 5.01 ± 0.34 | Relative level of GAP (compared with the control group) (U87MG; U-13C-Glc): 4.27 ± 0.07 | Relative level of Lac (compared with the control group) (U87MG; U-13C-Glc): 1.06 ± 0.02 ^N.S. | Relative level of PEP (compared with the control group) (U87MG; U-13C-Glc): 8.00 ± 0.32 | Relative content of GSH (compared with the control group) (KNS-89): 0.01 ± 0.00 | Relative content of GSSG (compared with the control group) (KNS-89): 0.33 ± 0.02 | Relative ratio of NADPH to NADP+ (compared with the control group) (KNS-89): 0.44 ± 0.04 | Relative content of GSH (compared with the control group) (SHG-44 [2]): 0.67 ± 0.01 | Relative content of GSSG (compared with the control group) (SHG-44 [2]): 0.38 ± 0.01 | Relative ratio of NADPH to NADP+ (compared with the control group) (SHG-44 [2]): 0.39 ± 0.01 | protein level of fructose-1,6-bisphosphatase 1 in kidney tissue (Western Blot) [3]: significantly up-regulated | viability at 800 µM (HCT-8; STG 100 μM, read-out: cell viability (Con = 100)): 85.9 ± 3.29% | cytotoxicity at 800 µM (HCT-8; sitagliptin 100 μM, read-out: cell viability inhibited): 41% | fat coefficient (epididymal fat pad) ([4]; 6 weeks, model group 3.96±0.83%, normal group 1.58±0.68%): 2.81±0.81% | Lee's INDEX ([4]; 6 weeks, model group 353.28±9.64, normal group 337.05±9.96): 326.14±11.10 | body weight after 6 weeks ([4]; agents in drinking water, FBP 300 mg/kg, STG 20 mg/kg, combination FBP 500 mg/kg+STG 20 mg/kg, model group 47.89±3.34): 45.93 ± 5.1 g | viability at 800 µM (SW620; read-out: cell viability (Con = 100)): 49.9 ± 3.91% | cytotoxicity at 800 µM (SW620; read-out: cell viability inhibited): 41% | cytotoxicity at 800 µM (Bel-7402): 41%
